Test results as given in ChEMBL document CHEMBL1130824, “The novel cyclopropapyrroloindole(CPI) bisalkylators bearing methoxycarbonyl and trifluoromethyl groups” (Bioorg Med Chem Lett, 1998).
Converted amounts (≈) assume the structure as drawn. Values belong to the molecule of their own block, whether it stands above or below them.

Key:
Colon 26 [1] = experiment: Compound was tested for antitumor activity against colon 26 murine adenocarcinoma infected CDF1 mice when administered at a dose of 31.3 ug/Kg intravenously; assay type: functional; conditions: Mus musculus, Colon 26, iv; read-out: TGI
HeLa = experiment: Concentration required to inhibit the growth of HeLaS3 cells; assay type: functional, cell-based, Homo sapiens
Colon 26 [2] = experiment: Compound was tested for antitumor activity against colon 26 murine adenocarcinoma infected CDF1 mice when administered at a dose of 4000 ug/Kg intravenously; assay type: functional; conditions: Mus musculus, Colon 26, iv; read-out: TGI
Colon 26 [3] = experiment: Compound was tested for antitumor activity against colon 26 murine adenocarcinoma infected CDF1 mice when administered at a dose of 15.6 ug/Kg intravenously; assay type: functional; conditions: Mus musculus, Colon 26, iv; read-out: TGI
Colon 26 [4] = experiment: Compound was tested for antitumor activity against colon 26 murine adenocarcinoma infected CDF1 mice when administered at a dose of 0.977 ug/Kg intravenously; assay type: functional; conditions: Mus musculus, Colon 26, iv; read-out: TGI
[5] = Homo sapiens, HeLa, read-out: IC50

Structure (SMILES): COC(=O)c1c(C(F)(F)F)[nH]c2c(O)cc3c(c12)[C@H](CCl)CN3C(=O)c1cc2cc(C#Cc3ccc4[nH]c(C(=O)N5C[C@@H](CCl)c6c5cc(O)c5[nH]c(C(F)(F)F)c(C(=O)OC)c65)cc4c3)ccc2[nH]1
inhibition in vivo at 0.0313 mg/kg (Colon 26 [1]): 82%
IC50 (HeLa; [5]): 0.35 ng/mL (≈ 0.348 nM)

Structure (SMILES): Cc1c[nH]c2c(O)cc3c(c12)[C@H](CCl)CN3C(=O)c1cc2cc(NC(=O)Nc3ccc4[nH]c(C(=O)N5C[C@@H](CCl)c6c5cc(O)c5[nH]cc(C)c65)cc4c3)ccc2[nH]1 [BIZELESIN]
inhibition in vivo at 0.0156 mg/kg (Colon 26 [3]): 90%
IC50 (HeLa; [5]): 0.06 ng/mL (≈ 0.0736 nM)

Structure (SMILES): COC(=O)c1c(C(F)(F)F)[nH]c2c(O)cc3c(c12)[C@H](CCl)CN3C(=O)c1cc2cc(Cc3ccc4[nH]c(C(=O)N5C[C@@H](CCl)c6c5cc(O)c5[nH]c(C(F)(F)F)c(C(=O)OC)c65)cc4c3)ccc2[nH]1
inhibition in vivo at 4 mg/kg (Colon 26 [2]): 80%
IC50 (HeLa; [5]): 33 ng/mL (≈ 33.1 nM)

Structure (SMILES): COC(=O)c1c(C(F)(F)F)[nH]c2c(O)cc3c(c12)[C@H](CCl)CN3C(=O)c1cc2cc(NC(=O)Nc3ccc4[nH]c(C(=O)N5C[C@@H](CCl)c6c5cc(O)c5[nH]c(C(F)(F)F)c(C(=O)OC)c65)cc4c3)ccc2[nH]1
inhibition in vivo at 0.0156 mg/kg (Colon 26 [3]): 94%
IC50 (HeLa; [5]): 0.091 ng/mL (≈ 0.0875 nM)

Structure (SMILES): COC(=O)c1c(C(F)(F)F)[nH]c2c(O)cc3c(c12)[C@H](CCl)CN3C(=O)c1cc2cc(CCc3ccc4[nH]c(C(=O)N5C[C@@H](CCl)c6c5cc(O)c5[nH]c(C(F)(F)F)c(C(=O)OC)c65)cc4c3)ccc2[nH]1
inhibition in vivo at 0.0313 mg/kg (Colon 26 [1]): 87%
IC50 (HeLa; [5]): 0.21 ng/mL (≈ 0.208 nM)

Now from value to molecule, other results behind:

IC50 (HeLa; [5]): 22 ng/mL (≈ 22.1 nM)
Structure (SMILES): COC(=O)c1c(C(F)(F)F)[nH]c2c(O)cc3c(c12)[C@H](CCl)CN3C(=O)c1cc2cc(Oc3ccc4[nH]c(C(=O)N5C[C@@H](CCl)c6c5cc(O)c5[nH]c(C(F)(F)F)c(C(=O)OC)c65)cc4c3)ccc2[nH]1
inhibition in vivo at 4 mg/kg (Colon 26 [2]): 88%

IC50 (HeLa; hela): 0.0049 ng/mL (≈ 0.00499 nM)
Structure (SMILES): COC(=O)c1c(C(F)(F)F)[nH]c2c(O)cc3c(c12)[C@H](CCl)CN3C(=O)c1cc2cc(-c3ccc4[nH]c(C(=O)N5C[C@@H](CCl)c6c5cc(O)c5[nH]c(C(F)(F)F)c(C(=O)OC)c65)cc4c3)ccc2[nH]1
inhibition in vivo at 0.000977 mg/kg (Colon 26 [4]): 84%
